Measured values taken from PubChem BioAssay AID1845217 (Molecular Pharmacology Branch, DTP, NCI, 2023).

System: VA-ES-BJ tumor spheroid viability
Experiment: Anticancer human tumor VA-ES-BJ cell line growth inhibition;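 also: spheroids exposed to compounds for seven days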;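 as to viability, T/C: percent of DMSO vehicle control viability so 100% = untreated growth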
Conditions: spheroids with HUVEC and MSC; for IC50: curve of first compound; for viability, T/C: stronger effect = lower value
Summary of the method: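 Complex spheroids of malignant cells with endothelial cells and mesenchymal stem cells; agents alone or combined, from near clinical Cmax (or 10 microM if unknown) down in half-log steps, 0.25% DMSO final.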

[1] = second compound 30 pM, first compound 0.0316 µM
[2] = second compound 30 pM, first compound 0.1 µM
[3] = second compound 30 pM, first compound 0.316 µM
[4] = second compound 30 pM, first compound 1 µM
[5] = second compound 30 pM, first compound 3.16 µM
[6] = second compound 30 pM, first compound 10 µM
[7] = second compound 94.9 pM, first compound 0.0316 µM
[8] = second compound 94.9 pM, first compound 0.1 µM
[9] = second compound 94.9 pM, first compound 0.316 µM
[10] = second compound 94.9 pM, first compound 1 µM
[11] = second compound 94.9 pM, first compound 3.16 µM
[12] = second compound 94.9 pM, first compound 10 µM
[13] = second compound 0.0003 µM, first compound 0.0316 µM
[14] = second compound 0.0003 µM, first compound 0.1 µM
[15] = second compound 0.0003 µM, first compound 0.316 µM
[16] = second compound 0.0003 µM, first compound 1 µM
[17] = second compound 0.0003 µM, first compound 3.16 µM
[18] = second compound 0.0003 µM, first compound 10 µM
[19] = second compound 0.000949 µM, first compound 0.0316 µM
[20] = second compound 0.000949 µM, first compound 0.1 µM
[21] = second compound 0.000949 µM, first compound 0.316 µM
[22] = second compound 0.000949 µM, first compound 1 µM
[23] = second compound 0.000949 µM, first compound 3.16 µM
[24] = second compound 0.000949 µM, first compound 10 µM
[25] = second compound 0.003 µM, first compound 0.0316 µM
[26] = second compound 0.003 µM, first compound 0.1 µM
[27] = second compound 0.003 µM, first compound 0.316 µM
[28] = second compound 0.003 µM, first compound 1 µM
[29] = second compound 0.003 µM, first compound 3.16 µM
[30] = second compound 0.003 µM, first compound 10 µM

Row | Compound | IC50 (second compound 30 pM) | IC50 (second compound 94.9 pM) | IC50 (second compound 0.0003 µM) | IC50 (second compound 0.000949 µM) | IC50 (second compound 0.003 µM) | viability, T/C [1] | viability, T/C [2] | viability, T/C [3] | viability, T/C [4] | viability, T/C [5] | viability, T/C [6] | viability, T/C [7] | viability, T/C [8] | viability, T/C [9] | viability, T/C [10] | viability, T/C [11] | viability, T/C [12] | viability, T/C [13] | viability, T/C [14] | viability, T/C [15] | also measured
1 | CC(C)n1c(=O)n(C)c2cnc3cc(F)c(-c4ccc(OCCCN5CCCCC5)nc4)cc3c21 + COc1cc2c(cc1O)CCNC21CSC2c3c(OC(C)=O)c(C)c4c(c3C(COC1=O)N1C(O)C3Cc5cc(C)c(OC)c(O)c5C(C21)N3C)OCO4 | 5850 nM | < 31.6 nM | < 31.6 nM | < 31.6 nM | < 31.6 nM | 76.2% | 76.6% | 75.2% | 81% | 79.1% | 26% | 50.3% | 45.4% | 46.6% | 54.1% | 47.8% | 28.6% | 25.9% | 25.1% | 30.5% | viability, T/C [16]: 31.5%; viability, T/C [17]: 19.7%; viability, T/C [18]: 13.2%; viability, T/C [19]: 1.74%; viability, T/C [20]: 1.58%; viability, T/C [21]: 1.8%; viability, T/C [22]: 1.79%; viability, T/C [23]: 1.02%; viability, T/C [24]: 1.02%; viability, T/C [25]: 1.5%; viability, T/C [26]: 1.42%; viability, T/C [27]: 1.59%; viability, T/C [28]: 0.72%; viability, T/C [29]: 0.45%; viability, T/C [30]: 0.56%
2 | CC1COCCN1c1cc(-c2ccnn2C)c2ccnc(-c3ccn[nH]3)c2n1 (stereo not given) + COc1cc2c(cc1O)CCNC21CSC2c3c(OC(C)=O)c(C)c4c(c3C(COC1=O)N1C(O)C3Cc5cc(C)c(OC)c(O)c5C(C21)N3C)OCO4 | < 31.6 nM | < 31.6 nM | < 31.6 nM | < 31.6 nM | < 31.6 nM | 38% | 19.5% | 8.68% | 5.69% | 4.98% | 4.49% | 26% | 21.3% | 8.87% | 4.99% | 5.01% | 4.7% | 16.9% | 12% | 8.21% | viability, T/C [16]: 5.23%; viability, T/C [17]: 5.32%; viability, T/C [18]: 5.04%; viability, T/C [19]: 2.61%; viability, T/C [20]: 2.73%; viability, T/C [21]: 2.01%; viability, T/C [22]: 1.53%; viability, T/C [23]: 0.5%; viability, T/C [24]: 0.13%; viability, T/C [25]: 1.26%; viability, T/C [26]: 1.04%; viability, T/C [27]: 0.77%; viability, T/C [28]: 1%; viability, T/C [29]: 0.35%; viability, T/C [30]: 0.56%
3 | COc1cc(C)[nH]c(=O)c1CN1CCc2c(Cl)cc(C(OC)C3COC3)c(Cl)c2C1=O (stereo not given) + COc1cc2c(cc1O)CCNC21CSC2c3c(OC(C)=O)c(C)c4c(c3C(COC1=O)N1C(O)C3Cc5cc(C)c(OC)c(O)c5C(C21)N3C)OCO4 | 933 nM | 981 nM | < 31.6 nM | < 31.6 nM | < 31.6 nM | 75.7% | 71.1% | 58.6% | 49.4% | 45.2% | 40.9% | 66.9% | 68.6% | 59.3% | 49% | 43.1% | 36.8% | 38.5% | 36.2% | 33.1% | viability, T/C [16]: 36.7%; viability, T/C [17]: 27.2%; viability, T/C [18]: 29.4%; viability, T/C [19]: 2.44%; viability, T/C [20]: 2.53%; viability, T/C [21]: 2.69%; viability, T/C [22]: 2.75%; viability, T/C [23]: 2.25%; viability, T/C [24]: 1.84%; viability, T/C [25]: 1.25%; viability, T/C [26]: 1.11%; viability, T/C [27]: 1.37%; viability, T/C [28]: 1.01%; viability, T/C [29]: 1.1%; viability, T/C [30]: 2%
4 | COc1ccc([C@@H](O)c2cc(-c3ncnc4cc(N5CCOCC5)ccc34)c(F)cc2Cl)nn1 + COc1cc2c(cc1O)CCNC21CSC2c3c(OC(C)=O)c(C)c4c(c3C(COC1=O)N1C(O)C3Cc5cc(C)c(OC)c(O)c5C(C21)N3C)OCO4 | 857 nM | 510 nM | 102 nM | < 31.6 nM | < 31.6 nM | 124% | 112% | 90.3% | 43.8% | 15.9% | 10.5% | 111% | 108% | 64.1% | 29.1% | 15% | 11.4% | 59.6% | 51.3% | 30.5% | viability, T/C [16]: 14%; viability, T/C [17]: 3.86%; viability, T/C [18]: 0.36%; viability, T/C [19]: 3.29%; viability, T/C [20]: 3.11%; viability, T/C [21]: 1.76%; viability, T/C [22]: 0.36%; viability, T/C [23]: 1.07%; viability, T/C [24]: 2.57%; viability, T/C [25]: 2.08%; viability, T/C [26]: 3.06%; viability, T/C [27]: 2.71%; viability, T/C [28]: 4.43%; viability, T/C [29]: 5.13%; viability, T/C [30]: 6.09%
5 | Cc1cc(C)c(CNC(=O)c2cc(-c3ccc(CN4CCOCC4)cc3)cc3c2cnn3C2CCCC2)c(=O)[nH]1 + COc1cc2c(cc1O)CCNC21CSC2c3c(OC(C)=O)c(C)c4c(c3C(COC1=O)N1C(O)C3Cc5cc(C)c(OC)c(O)c5C(C21)N3C)OCO4 | > 10000 nM | > 10000 nM | < 31.6 nM | < 31.6 nM | < 31.6 nM | 103% | 105% | 109% | 104% | 101% | 96.4% | 97.6% | 101% | 96.8% | 95.2% | 88.7% | 82.6% | 48.5% | 48.4% | 47.7% | viability, T/C [16]: 42.4%; viability, T/C [17]: 38.6%; viability, T/C [18]: 32.6%; viability, T/C [19]: 2.91%; viability, T/C [20]: 3.27%; viability, T/C [21]: 3.08%; viability, T/C [22]: 2.61%; viability, T/C [23]: 2.08%; viability, T/C [24]: 1.68%; viability, T/C [25]: 0.95%; viability, T/C [26]: 1.8%; viability, T/C [27]: 1.23%; viability, T/C [28]: 1.96%; viability, T/C [29]: 1.92%; viability, T/C [30]: 1.57%
6 | [2H]c1nc(C)nc([2H])c1-c1cc(NC[C@@H](C)c2cccc3c(C(=O)NC)ccnc23)ncn1 + COc1cc2c(cc1O)CCNC21CSC2c3c(OC(C)=O)c(C)c4c(c3C(COC1=O)N1C(O)C3Cc5cc(C)c(OC)c(O)c5C(C21)N3C)OCO4 | > 10000 nM | > 10000 nM | < 31.6 nM | < 31.6 nM | < 31.6 nM | 75.6% | 78.4% | 81.4% | 81.9% | 85.2% | 87.5% | 72.9% | 74% | 83.1% | 81% | 82.6% | 76.8% | 46.8% | 40.9% | 43.9% | viability, T/C [16]: 42.1%; viability, T/C [17]: 36%; viability, T/C [18]: 38.4%; viability, T/C [19]: 3.46%; viability, T/C [20]: 1.96%; viability, T/C [21]: 3.4%; viability, T/C [22]: 2.92%; viability, T/C [23]: 2.41%; viability, T/C [24]: 1.53%; viability, T/C [25]: 0.81%; viability, T/C [26]: 0.92%; viability, T/C [27]: 0.98%; viability, T/C [28]: 1.25%; viability, T/C [29]: 1.28%; viability, T/C [30]: 2.09%
